Here are results for one compound from paper PMC3281083, “Impact of the Herbal Medicine Sophora flavescens on the Oral Pharmacokinetics of Indinavir in Rats: The Involvement of CYP3A and P-Glycoprotein” (PLoS ONE, 2012).

The nature of data set [1]: Multiple-dose oral pharmacokinetics of indinavir (plasma) with co-administered Sophora preparations. It is filed as in vivo, Male Wistar rats. The settings on record: male, Wistar, rat, 40 mg/kg; for AUC(0-inf) / CL/F / Cmax / Tmax: po; for AUC(0-inf): read-out: AUC0-∞ of indinavir. On the procedure: Thirty rats were randomly designated as vehicle control, low-dose and high-dose Sophora treatment groups (ten rats in each group). A separate experiment was performed using eighteen rats designated as vehicle control, oxymatrine capsule and Sophora EA fraction groups (six rats in each group). […] Indinavir from […]® capsule (Merck & CO. Inc., Whitehouse Station, NJ, USA) was dissolved in 50 mM citric acid, and the oxymatrine capsule contents were dissolved in distilled water. […] The treatments were given twice a day (9 a.m. and 7 p.m.) for 7 consecutive days. The dosages were designed on the basis of clinical doses in human. The daily dose of S. flavescens recommended by the Chinese Pharmacopoeia is 4.5-9 g of raw herb per day. […] Taking the low and high ends of these dose ranges, and using a conversion based on the body-surface-area ratio between rats and human, an animal dose range of 0.45-1.8 g/kg/day (raw herb equivalent) was estimated for experimental rats. […] Plasma was obtained by centrifugation at 7,000× g for 15 min at 4°C and frozen at -80°C prior to analysis. […] Organ tissues, including liver and intestine, were isolated, rinsed with saline, blotted dried, snap-frozen in liquid nitrogen, and stored at -80°C until use. […] Midazolam was used as the internal standard. […] The residues were reconstituted with 200 μL of methanol-water (v/v, 1∶1) solution. The faeces were homogenized in about 4-fold volume of distilled water. The homogenates were extracted with equal volume of acetonitrile. After centrifugation, 1 mL of the supernatant was transferred to a glass tube, and was subsequently subjected to addition of midazolam, alkalization, extraction with ethyl acetate, drying and reconstitution. All reconstituted samples (60 μL) were separated on a Prevail C18 column (250 mm×4.6 mm […]) by an Agilent 1100 HPLC system (Agilent Technologies, Santa Clara, CA, USA). The flow rate was 0.8 mL/min. […] The effluent was introduced to APCI-MS (Agilent 1100 series LC/MSD Trap SL system, Santa Clara, CA, USA) with positive detection mode. […] Extract ion chromatograms at m/z 614 (indinavir) and m/z 326 (midazolam) were used for quantification (Figure S1). Quantification of indinavir was performed on six levels of standards in blank plasma or faeces homogenate. […] The recovery of the analyte ranged from 80% to 90%. […] The area under the plasma concentration-time curves from zero to infinity (AUC0-∞) was calculated by the trapezoidal rules. Clearance (CL) was calculated by the equation (F×Dose)/AUC0-∞, where F is the fraction of dose available in the systemic circulation. Peak plasma concentration (Cmax) and the time when it occurred (T max) were derived directly from the curves. Statistical differences were determined by unpaired Student's t test or one-way analysis of variance (one-way ANOVA) followed by Dunnett's post test. All tests were two-tailed and the significance was set at P<0.05.

Details of data set [2]: method as in PMID 10604964, PMID 10497146. As to conditions: rats; cited from earlier work.
Details of data set [3]: method as in PMID 15771225. As to conditions: low solubility/high permeability/extensive metabolism; cited from earlier work.
Where [4] appears, read: indinavir 40 mg/kg orally, multiple dosage, with EA fraction 0.164 g/kg/day, mean ± S.E.M.
Where [5] appears, read: indinavir 40 mg/kg orally, multiple dosage, with Oxymatrine (capsule) 90 mg/kg/day, mean ± S.E.M.
Setting [6] is: indinavir 40 mg/kg orally, multiple dosage, with Sophora extract 0.316 g/kg/day, mean ± S.E.M.
Setting [7] is: indinavir 40 mg/kg orally, multiple dosage, with Sophora extract 1.26 g/kg/day, mean ± S.E.M.
Where [8] appears, read: indinavir 40 mg/kg orally, multiple dosage, with vehicle control, mean ± S.E.M.

Read-outs that look alike come from different tables or passages of the source.

With `CC(C)(C)NC(=O)[C@@H]1CN(Cc2cccnc2)CCN1C[C@@H](O)C[C@@H](Cc1ccccc1)C(=O)N[C@H]1c2ccccc2C[C@H]1O` [indinavir], the C0 in data set [1] (oral, day 8, before last indinavir dose, detectable, below limit of quantification, read-out: Plasma indinavir concentration at time zero) is under 50 ng/mL. The AUC(0-inf) in data set [1] (indinavir 40 mg/kg orally twice a day for 7 days, last dose day 8, with vehicle control (1.5% Tween 80), mean ± S.E.M.) worked out at 16100 ± 990 ng·h/mL; in data set [1] (setting [4]), 12300 ± 1310 ng·h/mL; in data set [1] (setting [5]) it was 5290 ± 1110 ng·h/mL; in data set [1] (setting [6]), 7230 ± 870 ng·h/mL; in data set [1] (setting [7]), 2780 ± 610 ng·h/mL. In addition, the CL/F in data set [1] (setting [4]) is 57.6 mL/min/kg; in data set [1] (setting [5]), 159 mL/min/kg; in data set [1] (setting [6]), 101 mL/min/kg; in data set [1] (setting [7]) it was 316 mL/min/kg; in data set [1] (setting [8]), 42.8 mL/min/kg. Besides, the Cmax is 8410 ± 860 ng/mL in data set [1] (setting [4]); 4970 ± 810 ng/mL in data set [1] (setting [5]); 7170 ± 690 ng/mL in data set [1] (setting [6]); 3090 ± 1080 ng/mL in data set [1] (setting [7]); 11500 ± 670 ng/mL in data set [1] (setting [8]). Also, the Tmax in data set [1] (indinavir 40 mg/kg orally, multiple dosage, with EA fraction 0.164 g/kg/day, mean ± S.E.M., read-out: T max of indinavir) was 40.2 ± 9 min; in data set [1] (indinavir 40 mg/kg orally, multiple dosage, with Oxymatrine (capsule) 90 mg/kg/day, mean ± S.E.M., read-out: T max of indinavir), 25.2 ± 7.2 min; in data set [1] (indinavir 40 mg/kg orally, multiple dosage, with Sophora extract 0.316 g/kg/day, mean ± S.E.M., read-out: T max of indinavir), 37.2 ± 7.2 min; in data set [1] (indinavir 40 mg/kg orally, multiple dosage, with Sophora extract 1.26 g/kg/day, mean ± S.E.M., read-out: T max of indinavir), 30 ± 11.4 min; in data set [1] (indinavir 40 mg/kg orally, multiple dosage, with vehicle control, mean ± S.E.M., read-out: T max of indinavir) it was 30 ± 6 min; in data set [1] (oral, read-out: T max of indinavir determined in our study), 30 to 37 min. For the same compound, the Oral bioavailability in data set [2] is recorded as 26%. Besides, in data set [3], the “Metabolic (drug disposition) class” value is given as “Class 2”.
